Patent publication EP4778924A1 (Huons Co., Ltd., priority 2023, dated 2025)

Each compound was assayed against T1, Proton Pump (H^+,K^+-ATPase) (Sus scrofa, UniProt P19156) (assay: Inhibitory activity on proton pump (H+,K+-ATPase) activity, porcine gastric vesicles, malachite green readout). Details: porcine gastric vesicles, pH 6.5, 8 mM KCl, 0.2 mM ATP.
T1 construct: gastric vesicles were isolated from porcine stomachs; from tissue; host or cells: porcine stomach (gastric vesicles)
Format: biochemical
Procedure: Specifically, gastric vesicles were isolated from porcine stomachs, and the protein content of the vesicles was quantified using a BSA kit (Bio-Rad, 5000205). All reactions were performed in 96-well plates with a reaction volume of […] containing 100 ng of vesicles. 10 mM valinomycin and the test compound were added to reaction buffer (50 mM Tris-HEPES, 5 mM MgCl2, 8 mM KCl, pH 6.5) containing porcine gastric vesicles at various concentrations, and the mixture was incubated at 37°C for 30 minutes. DMSO or test compounds at different concentrations were added after diluting them to a final DMSO concentration of 0.1%. 0.2 mM adenosine triphosphate (ATP) was then added to the reaction buffer and incubated at 37°C for 20 minutes. The reaction was stopped with 0.2% Tween 20, followed by the addition of malachite green (Sigma Aldrich, MAK307) and incubation at room temperature for 30 minutes. The optical density (OD) value was measured at 620 nm using a microplate reader (Spectramax M5e, Molecular devices). The percent (%) inhibition was derived from the OD values of the control group and various concentrations of the test compounds. The IC50 of the test compounds was analyzed using nonlinear regression using the GraphPad Prism8 program using the % inhibition value at each concentration.

T1 sequence (P19156 2-1034 limits assumed): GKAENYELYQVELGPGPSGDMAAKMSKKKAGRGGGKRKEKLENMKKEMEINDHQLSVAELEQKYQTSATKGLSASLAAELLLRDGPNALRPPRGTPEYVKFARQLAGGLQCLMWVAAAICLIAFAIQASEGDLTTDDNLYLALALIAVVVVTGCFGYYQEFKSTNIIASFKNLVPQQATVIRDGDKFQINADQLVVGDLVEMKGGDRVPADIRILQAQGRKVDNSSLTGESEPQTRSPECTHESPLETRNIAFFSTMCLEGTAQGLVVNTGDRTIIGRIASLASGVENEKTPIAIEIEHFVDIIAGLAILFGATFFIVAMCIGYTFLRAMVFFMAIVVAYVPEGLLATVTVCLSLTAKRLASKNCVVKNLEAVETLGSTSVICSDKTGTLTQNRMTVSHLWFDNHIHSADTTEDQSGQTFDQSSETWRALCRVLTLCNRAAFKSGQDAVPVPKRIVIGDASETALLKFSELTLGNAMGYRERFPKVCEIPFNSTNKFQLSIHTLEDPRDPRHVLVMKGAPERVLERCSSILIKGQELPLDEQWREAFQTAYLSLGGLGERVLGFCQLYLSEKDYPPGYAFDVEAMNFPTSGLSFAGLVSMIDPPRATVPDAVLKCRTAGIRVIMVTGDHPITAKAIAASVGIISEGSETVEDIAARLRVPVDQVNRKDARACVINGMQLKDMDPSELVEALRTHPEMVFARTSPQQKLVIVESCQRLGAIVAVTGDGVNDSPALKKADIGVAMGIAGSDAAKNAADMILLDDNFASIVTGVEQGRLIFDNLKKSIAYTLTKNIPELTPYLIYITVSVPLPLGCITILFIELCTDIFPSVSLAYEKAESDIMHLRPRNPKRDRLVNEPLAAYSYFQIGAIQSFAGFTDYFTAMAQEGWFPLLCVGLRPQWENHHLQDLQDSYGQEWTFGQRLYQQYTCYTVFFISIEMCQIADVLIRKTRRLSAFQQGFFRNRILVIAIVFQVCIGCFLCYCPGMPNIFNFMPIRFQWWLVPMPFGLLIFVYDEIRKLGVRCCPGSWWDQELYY
T1 sequence (P18434 whole entry partner): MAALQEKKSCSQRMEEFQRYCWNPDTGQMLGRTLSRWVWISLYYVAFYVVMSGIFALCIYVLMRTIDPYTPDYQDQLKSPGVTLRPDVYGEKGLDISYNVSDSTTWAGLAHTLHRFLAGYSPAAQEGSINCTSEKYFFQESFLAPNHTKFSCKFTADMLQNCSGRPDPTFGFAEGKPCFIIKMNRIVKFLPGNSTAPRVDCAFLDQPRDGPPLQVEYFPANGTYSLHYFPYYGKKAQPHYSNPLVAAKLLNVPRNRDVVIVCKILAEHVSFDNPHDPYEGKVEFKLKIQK

IC50 [nM]	Structure (SMILES)
100 to 500	Cc1cccc(C)c1CNc1cc(Br)cn2c(C)c(C)nc12 [Comparative Example 1, reference compound]
> 500	COC(=O)c1cc(NCc2c(C)cccc2C)c2nc(C)c(C)n2c1 [Comparative Example 2, reference compound]
100 to 500	Cc1cccc(C)c1CNc1cc(NC(=O)C2CCCC2)cn2c(C)c(C)nc12 [Example 1, N-(8-((2,6-dimethylbenzyl)amino)-2,3-dimethylimidazo[1,2-a]pyridin-6-yl)cyclopentanecarboxamide]
100 to 500	Cc1cccc(C)c1CNc1cc(NC(=O)C2CC2)cn2c(C)c(C)nc12 [Example 2, N-(8-((2,6-dimethylbenzyl)amino)-2,3-dimethylimidazo[1,2-a]pyridin-6-yl)cyclopropanecarboxamide]
> 500	Cc1cccc(C)c1CNc1cc(NC(=O)C2CCCCC2)cn2c(C)c(C)nc12 [Example 3, N-(8-((2,6-dimethylbenzyl)amino)-2,3-dimethylimidazo[1,2-a]pyridin-6-yl)cyclohexanecarboxamide]
100 to 500	Cc1cccc(C)c1CNc1cc(NC(=O)C2CCC2)cn2c(C)c(C)nc12 [Example 5, N-(8-((2,6-dimethylbenzyl)amino)-2,3-dimethylimidazo[1,2-a]pyridin-6-yl)cyclobutanecarboxamide]
50 to 100	Cc1cccc(C)c1CNc1cc(NC(=O)N2CCC2)cn2c(C)c(C)nc12 [Example 6, N-(8-((2,6-dimethylbenzyl)amino)-2,3-dimethylimidazo[1,2-a]pyridin-6-yl)azetidine-1-carboxamide]
100 to 500	Cc1cccc(C)c1CNc1cc(NC(=O)C(C)C)cn2c(C)c(C)nc12 [Example 7, N-(8-((2,6-dimethylbenzyl)amino)-2,3-dimethylimidazo[1,2-a]pyridin-6-yl)isobutyramide]
> 500	Cc1cccc(C)c1CNc1cc(NC(=O)C(C)(C)C)cn2c(C)c(C)nc12 [Example 8, N-(8-((2,6-dimethylbenzyl)amino)-2,3-dimethylimidazo[1,2-a]pyridin-6-yl)pivalamide]
> 500	Cc1cccc(C)c1CNc1cc(NC(=O)C(F)F)cn2c(C)c(C)nc12 [Example 9, N-(8-((2,6-dimethylbenzyl)amino)-2,3-dimethylimidazo [1,2-a]pyridin-6-yl)-2,2-difluoroacetamide]
< 50	Cc1cccc(C)c1CNc1cc(NC(=O)CN)cn2c(C)c(C)nc12.Cl [Example 10, 2-amino-N-(8-((2,6-dimethylbenzyl)amino)-2,3-dimethylimidazo[1,2-a]pyridin-6-yl)acetamide hydrochloride]
100 to 500	Cc1cccc(C)c1CNc1cc(NC(=O)N2CCCC2)cn2c(C)c(C)nc12 [Example 11, N-(8-((2,6-dimethylbenzyl)amino)-2,3-dimethylimidazo[1,2-a]pyridin-6-yl)pyrrolidine-1-carboxamide]
100 to 500	Cc1cccc(C)c1CNc1cc(NC(=O)C23CC(C2)C3)cn2c(C)c(C)nc12 [Example 12, N-(8-((2,6-dimethylbenzyl)amino)-2,3-dimethylimidazo[1,2-a]pyridin-6-yl)bicyclo[1.1.1]pentane-1-carboxamide]
50 to 100	CCC(=O)Nc1cc(NCc2c(C)cccc2C)c2nc(C)c(C)n2c1 [Example 13, N-(8-((2,6-dimethylbenzyl)amino)-2,3-dimethylimidazo[1,2-a]pyridin-6-yl)propionamide]
100 to 500	Cc1cccc(C)c1CNc1cc(NC(=O)c2ncco2)cn2c(C)c(C)nc12 [Example 14, N-(8-((2,6-dimethylbenzyl)amino)-2,3-dimethylimidazo[1,2-a]pyridin-6-yl)oxazole-2-carboxamide]
100 to 500	Cc1cccc(C)c1CNc1cc(NC(=O)C(C)(F)F)cn2c(C)c(C)nc12 [Example 16, N-(8-((2,6-dimethylbenzyl)amino)-2,3-dimethylimidazo[1,2-a]pyridin-6-yl)-2,2-difluoropropanamide]

Same assay, conditions: result in words

inhibitory activity against proton pump activity	Structure (SMILES)
weak inhibitory activity	Cc1cccc(C)c1CNc1cc(Br)cn2c(C)c(C)nc12 [Comparative Example 1, reference compound]
weak inhibitory activity	COC(=O)c1cc(NCc2c(C)cccc2C)c2nc(C)c(C)n2c1 [Comparative Example 2, reference compound]
excellent inhibitory properties	Cc1cccc(C)c1CNc1cc(NC(=O)CN)cn2c(C)c(C)nc12.Cl [Example 10, 2-amino-N-(8-((2,6-dimethylbenzyl)amino)-2,3-dimethylimidazo[1,2-a]pyridin-6-yl)acetamide hydrochloride]
